Reference: patent publication US20120245137A1 (Zalicus Pharmaceuticals Ltd., priority 2009, published 2012)

Legend:
Format in all cases: cell-based
[1] = molecular target: human α1G T-type channels (Homo sapiens, UniProt O43497); assay: T-type calcium channel block, whole cell patch clamp, α1G; details: HEK cells stably expressing human α1G; mainly non-inactivated protocol; values above 10,000 nM represented as 10000
Procedure, shortened: (§1)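 Using standard patch-clamp, T-type currents were recorded from stably transfected human α1G or α1H HEK 293 cells. Separate non-inactivating and inactivation voltage protocols distinguished resting from voltage-dependent block by locally applied compound in 0.1-0.01% DMSO.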

[2] = molecular target: N-type calcium channel subunits (α1B, α2δ, and β3a) (Homo sapiens, UniProt Q00975); assay: Block of Cav2.2 channel, whole cell voltage clamp, manual and PatchXpress; details: Table 5; table follows Assay Example 3 (whole cell voltage clamp / PatchXpress); assay not given
Procedure, shortened: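 Percent block taken as current amplitude ratio with versus without compound, applied in rising doses; IC50 fitted where one cell received multiple doses. Protocol: 50 ms pulses to +20 mV at 0.067 Hz from […] or −90 mV holding; P/n leak subtraction, no junction-potential correction; manual and PatchXpress recordings.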

[3] = molecular target: human α1H T-type channels (Homo sapiens, UniProt O95180); assay: T-type calcium channel block, whole cell patch clamp, α1H; details: HEK cells stably expressing human α1H; mainly non-inactivated protocol; values above 10,000 nM represented as 10000
Sequence of human α1H T-type channels (O95180 whole entry): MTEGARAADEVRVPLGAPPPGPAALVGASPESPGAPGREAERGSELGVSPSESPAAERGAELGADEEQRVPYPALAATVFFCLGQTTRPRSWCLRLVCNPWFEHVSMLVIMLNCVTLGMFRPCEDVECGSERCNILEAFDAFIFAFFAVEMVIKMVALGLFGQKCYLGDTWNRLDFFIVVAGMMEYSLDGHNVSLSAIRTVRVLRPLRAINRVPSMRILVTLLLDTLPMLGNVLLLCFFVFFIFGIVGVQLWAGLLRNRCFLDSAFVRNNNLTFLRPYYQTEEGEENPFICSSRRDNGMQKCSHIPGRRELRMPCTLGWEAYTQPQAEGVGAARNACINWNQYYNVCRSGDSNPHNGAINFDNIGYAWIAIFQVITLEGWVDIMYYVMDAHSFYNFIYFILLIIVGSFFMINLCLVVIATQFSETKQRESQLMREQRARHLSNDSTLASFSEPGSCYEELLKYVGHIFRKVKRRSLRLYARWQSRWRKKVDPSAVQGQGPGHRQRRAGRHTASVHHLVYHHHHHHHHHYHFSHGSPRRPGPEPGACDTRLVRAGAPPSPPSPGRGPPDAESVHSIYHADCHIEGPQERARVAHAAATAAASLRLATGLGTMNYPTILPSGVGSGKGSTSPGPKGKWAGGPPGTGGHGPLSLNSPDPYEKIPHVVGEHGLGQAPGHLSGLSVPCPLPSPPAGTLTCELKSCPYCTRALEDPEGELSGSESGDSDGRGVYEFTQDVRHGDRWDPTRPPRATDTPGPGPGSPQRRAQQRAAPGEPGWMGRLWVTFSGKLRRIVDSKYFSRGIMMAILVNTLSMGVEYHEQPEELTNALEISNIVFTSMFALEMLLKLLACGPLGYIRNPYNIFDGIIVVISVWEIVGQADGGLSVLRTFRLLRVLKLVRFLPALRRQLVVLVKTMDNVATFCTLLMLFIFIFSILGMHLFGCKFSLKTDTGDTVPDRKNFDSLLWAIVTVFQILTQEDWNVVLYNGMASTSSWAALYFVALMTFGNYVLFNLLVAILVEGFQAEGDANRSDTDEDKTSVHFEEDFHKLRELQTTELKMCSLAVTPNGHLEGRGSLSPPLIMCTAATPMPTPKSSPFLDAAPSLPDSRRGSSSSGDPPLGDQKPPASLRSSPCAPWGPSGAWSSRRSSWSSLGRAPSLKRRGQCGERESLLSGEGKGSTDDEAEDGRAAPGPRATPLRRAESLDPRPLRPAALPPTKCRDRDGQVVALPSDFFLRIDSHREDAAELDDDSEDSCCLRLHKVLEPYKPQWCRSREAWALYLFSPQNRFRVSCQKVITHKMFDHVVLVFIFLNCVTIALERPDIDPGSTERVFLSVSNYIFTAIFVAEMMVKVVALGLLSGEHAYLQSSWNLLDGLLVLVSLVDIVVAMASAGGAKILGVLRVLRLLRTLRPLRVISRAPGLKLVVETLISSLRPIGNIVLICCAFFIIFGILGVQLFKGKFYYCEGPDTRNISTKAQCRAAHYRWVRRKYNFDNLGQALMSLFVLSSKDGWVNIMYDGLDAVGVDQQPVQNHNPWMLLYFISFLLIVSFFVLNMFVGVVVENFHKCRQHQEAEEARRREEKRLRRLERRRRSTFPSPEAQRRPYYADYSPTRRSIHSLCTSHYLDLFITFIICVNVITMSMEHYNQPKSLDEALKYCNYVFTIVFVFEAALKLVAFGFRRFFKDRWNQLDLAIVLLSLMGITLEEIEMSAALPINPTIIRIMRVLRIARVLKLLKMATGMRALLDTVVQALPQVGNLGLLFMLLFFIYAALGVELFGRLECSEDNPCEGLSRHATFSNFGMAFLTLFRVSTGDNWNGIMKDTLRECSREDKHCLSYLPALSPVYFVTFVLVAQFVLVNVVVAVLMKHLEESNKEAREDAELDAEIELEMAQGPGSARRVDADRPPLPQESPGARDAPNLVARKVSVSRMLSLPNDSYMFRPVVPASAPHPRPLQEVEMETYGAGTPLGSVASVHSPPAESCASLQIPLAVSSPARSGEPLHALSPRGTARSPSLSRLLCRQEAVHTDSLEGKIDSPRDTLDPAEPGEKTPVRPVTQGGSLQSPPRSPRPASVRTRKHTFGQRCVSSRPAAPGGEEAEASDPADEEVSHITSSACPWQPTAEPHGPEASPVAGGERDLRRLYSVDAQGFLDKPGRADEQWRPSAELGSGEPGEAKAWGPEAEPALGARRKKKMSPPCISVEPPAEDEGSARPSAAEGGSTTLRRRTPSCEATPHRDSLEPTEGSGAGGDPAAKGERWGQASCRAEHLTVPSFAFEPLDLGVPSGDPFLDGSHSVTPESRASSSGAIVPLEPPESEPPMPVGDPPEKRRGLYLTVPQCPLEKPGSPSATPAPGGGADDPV
Procedure, shortened: as §1

Sequence of human α1G T-type channels (O43497 whole entry): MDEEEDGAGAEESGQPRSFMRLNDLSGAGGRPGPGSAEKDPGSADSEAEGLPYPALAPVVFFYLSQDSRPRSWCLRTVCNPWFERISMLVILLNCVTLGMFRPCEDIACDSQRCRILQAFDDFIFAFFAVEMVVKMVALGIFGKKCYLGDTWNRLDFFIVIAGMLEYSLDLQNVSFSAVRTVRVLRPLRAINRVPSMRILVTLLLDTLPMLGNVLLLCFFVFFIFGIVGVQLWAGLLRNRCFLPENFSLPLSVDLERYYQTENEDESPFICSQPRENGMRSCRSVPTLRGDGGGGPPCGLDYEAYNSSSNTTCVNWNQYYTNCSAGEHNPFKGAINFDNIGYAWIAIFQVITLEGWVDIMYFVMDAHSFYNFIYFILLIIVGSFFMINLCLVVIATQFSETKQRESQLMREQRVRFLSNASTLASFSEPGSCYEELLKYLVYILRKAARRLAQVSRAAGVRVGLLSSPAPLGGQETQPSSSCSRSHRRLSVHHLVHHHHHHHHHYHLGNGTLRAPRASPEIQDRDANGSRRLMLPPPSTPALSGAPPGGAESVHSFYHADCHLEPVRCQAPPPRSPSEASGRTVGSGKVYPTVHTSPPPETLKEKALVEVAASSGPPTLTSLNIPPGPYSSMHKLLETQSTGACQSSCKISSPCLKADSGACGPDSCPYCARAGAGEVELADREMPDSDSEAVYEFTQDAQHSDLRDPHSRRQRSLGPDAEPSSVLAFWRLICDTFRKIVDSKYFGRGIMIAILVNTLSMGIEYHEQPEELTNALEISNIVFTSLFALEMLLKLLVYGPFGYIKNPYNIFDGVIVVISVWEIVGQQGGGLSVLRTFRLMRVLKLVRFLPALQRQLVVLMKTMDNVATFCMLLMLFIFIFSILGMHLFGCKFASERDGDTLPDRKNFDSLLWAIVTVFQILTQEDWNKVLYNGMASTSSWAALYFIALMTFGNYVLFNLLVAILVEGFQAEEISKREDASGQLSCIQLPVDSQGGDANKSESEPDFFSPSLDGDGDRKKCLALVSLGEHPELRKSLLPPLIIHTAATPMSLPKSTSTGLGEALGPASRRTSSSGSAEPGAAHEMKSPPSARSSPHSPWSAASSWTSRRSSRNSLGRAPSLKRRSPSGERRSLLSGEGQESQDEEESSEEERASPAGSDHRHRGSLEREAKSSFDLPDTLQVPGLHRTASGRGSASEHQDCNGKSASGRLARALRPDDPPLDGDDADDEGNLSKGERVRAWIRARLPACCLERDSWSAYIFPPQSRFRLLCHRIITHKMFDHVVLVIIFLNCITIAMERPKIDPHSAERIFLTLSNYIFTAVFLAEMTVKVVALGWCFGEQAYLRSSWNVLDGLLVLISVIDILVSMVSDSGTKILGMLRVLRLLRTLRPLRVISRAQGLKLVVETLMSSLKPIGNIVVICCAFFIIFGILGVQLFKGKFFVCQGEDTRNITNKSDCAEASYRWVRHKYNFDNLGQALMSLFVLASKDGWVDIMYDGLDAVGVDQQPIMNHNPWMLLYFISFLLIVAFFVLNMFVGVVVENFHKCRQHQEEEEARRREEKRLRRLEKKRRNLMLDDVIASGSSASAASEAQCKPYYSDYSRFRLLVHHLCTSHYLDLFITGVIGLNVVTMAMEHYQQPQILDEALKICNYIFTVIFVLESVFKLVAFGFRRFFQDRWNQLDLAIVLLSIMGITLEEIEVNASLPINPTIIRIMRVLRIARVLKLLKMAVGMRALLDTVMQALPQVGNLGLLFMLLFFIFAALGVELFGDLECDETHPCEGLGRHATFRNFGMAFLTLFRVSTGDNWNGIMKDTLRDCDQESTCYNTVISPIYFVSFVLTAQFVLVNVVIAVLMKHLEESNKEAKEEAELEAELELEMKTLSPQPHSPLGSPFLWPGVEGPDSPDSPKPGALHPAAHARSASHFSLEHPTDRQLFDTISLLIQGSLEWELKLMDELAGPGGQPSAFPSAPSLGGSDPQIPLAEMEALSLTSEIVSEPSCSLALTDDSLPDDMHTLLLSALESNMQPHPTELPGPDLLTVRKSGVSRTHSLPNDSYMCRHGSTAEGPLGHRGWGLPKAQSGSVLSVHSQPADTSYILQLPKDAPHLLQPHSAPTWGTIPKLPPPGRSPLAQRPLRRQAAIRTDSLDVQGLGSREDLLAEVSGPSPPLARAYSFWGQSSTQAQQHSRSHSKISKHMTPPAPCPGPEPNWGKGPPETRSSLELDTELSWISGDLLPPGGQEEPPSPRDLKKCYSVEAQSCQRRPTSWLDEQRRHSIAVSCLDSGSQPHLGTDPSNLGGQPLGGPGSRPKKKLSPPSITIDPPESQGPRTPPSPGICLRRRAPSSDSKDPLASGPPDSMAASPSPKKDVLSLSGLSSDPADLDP

IC50 [1] | IC50 [2] | IC50 [3] | Compound
1060 nM | 1160 nM | 660 nM | O=C(NC[C@H]1C[C@H](S(=O)(=O)c2cccc(C(F)(F)F)c2)C1)c1cnc(C(F)(F)F)nc1 [Compound 371, 2-(trifluoromethyl)-N-(((1R,3R)-3-(3-(trifluoromethyl)phenylsulfonyl)cyclobutyl)methyl)pyrimidine-5-carboxamide]
> 10000 nM | 480 nM | 7200 nM | COc1cc(C(=O)NCC2(C)CCC(F)(S(=O)(=O)c3cccc(C(F)(F)F)c3)CC2)cc(Cl)n1 (stereo not drawn) [Compound 158, 2-chloro-N-((4-fluoro-1-methyl-4-(3-(trifluoromethyl)phenylsulfonyl)cyclohexyl)methyl)-6-methoxyisonicotinamide]
3670 nM | 1720 nM | 4550 nM | O=C(N[C@H]1CC[C@@H](S(=O)(=O)c2cccc(C(F)(F)F)c2)CC1)c1ccc(Cl)c(C(F)(F)F)c1 [Compound 132, 4-chloro-3-(trifluoromethyl)-N-((1S,4S)-4-(3-(trifluoromethyl)phenylsulfonyl)cyclohexyl)benzamide]
9880 nM | 420 nM | 2840 nM | 4-fluoro-3-(trifluoromethyl)-N- ((1S,4S)-4-((3- (trifluoromethyl)phenylsulfonyl) methyl)cyclohexyl)benzamide [Compound 138]
1430 nM | 190 nM | 740 nM | Cn1nc(C(F)(F)F)cc1C(=O)NC[C@H]1C[C@H](S(=O)(=O)c2cccc(C(F)(F)F)c2)C1 [Compound 355, 1-methyl-3-(trifluoromethyl)-N-(((1R,3R)-3-(3-(trifluoromethyl)phenylsulfonyl)cyclobutyl)methyl)-1H-pyrazole-5-carboxamide]
260 nM | 610 nM | 430 nM | O=C(NC[C@H]1CC[C@@H](S(=O)(=O)c2cccc(C(F)(F)F)c2)CC1)c1cc(F)cc(Cl)c1 [Compound 29, 3-chloro-5-fluoro-N-(((1S,4S)-4-(3-(trifluoromethyl)phenylsulfonyl)cyclohexyl)methyl)benzamide]
> 10000 nM | 630 nM | > 10000 nM | Cn1nc(C(F)(F)F)cc1C(=O)N[C@H]1CC[C@H](CS(=O)(=O)c2cccc(C(F)(F)F)c2)CC1 [Compound 102, 1-methyl-3-(trifluoromethyl)-N-((1R,4R)-4-((3-(trifluoromethyl)phenylsulfonyl)methyl)cyclohexyl)-1H-pyrazole-5-carboxamide]
8370 nM | 190 nM | > 10000 nM | O=C(NC[C@H]1C[C@H](S(=O)(=O)c2cccc(C(F)(F)F)c2)C1)c1ccc(C(F)(F)F)cn1 [Compound 358, 5-(trifluoromethyl)-N-(((1R,3R)-3-(3-(trifluoromethyl)phenylsulfonyl)cyclobutyl)methyl)picolinamide]
490 nM | 2370 nM | 270 nM | O=C(NC[C@H]1C[C@@H](S(=O)(=O)c2cccc(C(F)(F)F)c2)C1)c1ccnc(C(F)(F)F)c1 [Compound 386, 2-(trifluoromethyl)-N-(((1S,3S)-3-(3-(trifluoromethyl)phenylsulfonyl)cyclobutyl)methyl)isonicotinamide]
4940 nM | 860 nM | 1530 nM | O=C(CN[C@H]1CC[C@@H](S(=O)(=O)c2cccc(C(F)(F)F)c2)CC1)Nc1ccccn1 [Compound 57, N-(pyridin-2-yl)-2-((1S,4S)-4-(3-(trifluoromethyl)phenylsulfonyl)cyclohexylamino)acetamide]

Further lines, the compound ahead of its results:

Compound | IC50 [1] | IC50 [2] | IC50 [3]
CS(=O)(=O)c1cc(C(F)(F)F)cnc1C(=O)N[C@H]1CC[C@@](F)(S(=O)(=O)c2cc(F)cc(C(F)(F)F)c2)CC1 [Compound 331, N-((1S,4S)-4-fluoro-4-(3-fluoro-5-(trifluoromethyl)phenylsulfonyl)cyclohexyl)-3-(methylsulfonyl)-5-(trifluoromethyl)picolinamide] | 2650 nM | 1290 nM | 1510 nM
3-chloro-5-fluoro-N-(1- methyl-4-(3-(trifluoromethyl) phenylsulfonyl)cyclohexyl) benzamide [Compound 318] | 2430 nM | 620 nM | 1330 nM
O=C(N[C@H]1CC[C@@](F)(S(=O)(=O)c2cccc(C(F)(F)F)c2)CC1)C1CCCC1 [Compound 277, N-((1S,4S)-4-fluoro-4-(3-(trifluoromethyl)phenylsulfonyl)cyclohexyl) cyclopentanecarboxamide] | 2460 nM | 470 nM | 540 nM
CC(C)(C)OC(=O)N[C@H]1CC[C@H](S(=O)(=O)c2cccc(C(F)(F)F)c2)CC1 [Compound 95, tert-butyl(1R,4R)-4-(3-(trifluoromethyl)phenylsulfonyl) cyclohexylcarbamate] | 6970 nM | 1640 nM | 2150 nM
O=C(N[C@H]1CC[C@@](F)(S(=O)(=O)c2cccc(C(F)(F)F)c2)CC1)c1cnc(C(F)(F)F)nc1 [Compound 261, N-((1S,4S)-4-fluoro-4-(3-(trifluoromethyl)phenylsulfonyl)cyclohexyl)-2-(trifluoromethyl)pyrimidine-5-carboxamide] | > 10000 nM | 1720 nM | 7180 nM
O=C(N[C@H]1CC[C@H](S(=O)(=O)c2cccc(C(F)(F)F)c2)CC1)c1ccc(F)c(C(F)(F)F)c1 [Compound 58, 4-fluoro-3-(trifluoromethyl)-N-((1R,4R)-4-(3-(trifluoromethyl)phenylsulfonyl)cyclohexyl)benzamide] | 1850 nM | 800 nM | 1480 nM
CC1(CNC(=O)c2ccc(F)c(C(F)(F)F)c2)CCC(S(=O)(=O)c2cccc(C(F)(F)F)c2)CC1 (stereo not drawn) [Compound 135, 4-fluoro-N-((1-methyl-4-(3-(trifluoromethyl)phenylsulfonyl)cyclohexyl)methyl)-3-(trifluoromethyl)benzamide] | 780 nM | 100 nM | 760 nM
CC(C)S(=O)(=O)c1cc(C(F)(F)F)cnc1C(=O)N[C@H]1CC[C@H](S(=O)(=O)c2cccc(C(F)(F)F)c2)CC1 [Compound 340, 3-(isopropylsulfonyl)-5-(trifluoromethyl)-N-((1R,4R)-4-(3-(trifluoromethyl)phenylsulfonyl)cyclohexyl) picolinamide] | 9870 nM | 2010 nM | 3170 nM
O=C(N[C@H]1CC[C@@H](S(=O)(=O)c2cccc(C(F)(F)F)c2)CC1)c1ccnn1CC(F)(F)F [Compound 193, l-(2,2,2-trifluoroethyl)-N-((1S,4S)-4-(3-(trifluoromethyl)phenylsulfonyl)cyclohexyl)-1H-pyrazole-5-carboxamide] | 6970 nM | 540 nM | 1590 nM
CS(=O)(=O)c1cc(C(F)(F)F)cnc1C(=O)N[C@H]1CC[C@@](F)(S(=O)(=O)c2cccc(C(F)(F)F)c2)CC1 [Compound 259, N-((1S,4S)-4-fluoro-4-(3-(trifluoromethyl)phenylsulfonyl)cyclohexyl)-3-(methylsulfonyl)-5-(trifluoromethyl)picolinamide] | 6110 nM | 500 nM | 9620 nM
O=C(CNC1CCCCC1)N[C@H]1CC[C@H](CS(=O)(=O)c2cccc(C(F)(F)F)c2)CC1 [Compound 162, 2-(cyclohexylamino)-N-((1R,4R)-4-((3-(trifluoromethyl)phenylsulfonyl)methyl)cyclohexyl)acetamide] | > 10000 nM | 540 nM | > 10000 nM
Cc1nn(C)c(C)c1S(=O)(=O)N[C@H]1CC[C@@](F)(S(=O)(=O)c2cccc(C(F)(F)F)c2)CC1 [Compound 293, N-((1S,4S)-4-fluoro-4-(3-(trifluoromethyl)phenylsulfonyl)cyclohexyl)-1,3,5-trimethyl-1H-pyrazole-4-sulfonamide] | 4770 nM | 1630 nM | 1850 nM
O=C(N[C@H]1CC[C@@](F)(S(=O)(=O)c2cccc(C(F)(F)F)c2)CC1)c1ccc(Cl)c(Cl)c1 [Compound 269, 3,4-dichloro-N-((1S,4S)-4-fluoro-4-(3-(trifluoromethyl)phenylsulfonyl)cyclohexyl)benzamide] | > 10000 nM | 190 nM | > 10000 nM
O=C(N[C@H]1CC[C@@](F)(S(=O)(=O)c2cccc(C(F)(F)F)c2)CC1)C1Cc2ccccc2N1 (stereo partly drawn) [Compound 279, N-((1S,4S)-4-fluoro-4-(3-(trifluoromethyl)phenylsulfonyl)cyclohexyl) indoline-2-carboxamide] | > 10000 nM | 450 nM | 2090 nM
COc1ccc(C(C)(C)NC(=O)[C@H]2C[C@H](S(=O)(=O)c3cccc(C(F)(F)F)c3)C2)cc1 [Compound 403, (1R,3R)-N-(2-(4-methoxyphenyl)propan-2-yl)-3-(3-(trifluoromethyl)phenylsulfonyl)cyclobutane carboxamide] | 1190 nM | 1460 nM | 1040 nM
O=C(N[C@H]1CC[C@@](F)(S(=O)(=O)c2cccc(C(F)(F)F)c2)CC1)c1cc(F)cc(Cl)c1 [Compound 86, 3-chloro-5-fluoro-N-((1S,4S)-4-fluoro-4-(3-(trifluoromethyl)phenylsulfonyl)cyclohexyl)benzamide] | > 10000 nM | 190 nM | 1930 nM
